Test results from patent US4315023A, “1-Phenethylimidazole derivatives” (Westwood Pharmaceuticals, Inc., priority 1980, dated 1982).
Where a name gives a salt, the structure may show the parent alone. Values belong to the molecule of their own block, whether it stands above or below them.

Assays:
Staphylococcus aureus = experiment: in vitro antibacterial activity (MIC), S. aureus; assay type: cell-based; details: Nutrient Broth
Streptococcus pyogenes = experiment: in vitro antibacterial activity (MIC), S. pyogenes; assay type: cell-based; details: 50% Nutrient Broth + 5% human serum
S. faecalis = experiment: in vitro antibacterial activity (MIC), S. faecalis; assay type: cell-based, Streptococcus faecalis; details: Enterococcus faecalis; Nutrient Broth
Candida albicans = Candida albicans induced vaginal infection in mice; assay type: in vivo, female mice; details: for EC50, Candida Vaginal Infection: Table I, percentage drug concentration giving 50% of the score of untreated control, intravaginal; for EC50 (%) (95% CL), Candida vaginal infection: Table II, N = 5, 5 applications day 0 to 4; for Score, Determination A / Score, Determination B / Score, Mean / Score, Determination C / Score, Determination D: score 0-4
Experimental: A majority of the compounds of formula 3 were evaluated together with the prior art compound of formula 2 in a Candida albicans induced vaginal infection in mice and a Trichophyton quinekeanum induced skin infection in guinea pigs. Sabouraud broth was inoculated with Candida albicans and the inoculum incubated for two days at 28° C. on a rotary shaker. Groups of four to five female mice weighing between 18-21 grams were infected intravaginally with a 0.01 ml portion of the cell suspension containing 10^8 cells/ml on day 0. The mice were treated subcutaneously with 0.5 mg of estradiol benzoate three days before and four days after infection. The test compounds were suspended in 1% carboxymethyl cellulose and 0.02 ml of the suspension was instilled intravaginally from day 0 (four hours after infection) to day 4 (5 applications). On day 7, vaginal exudate was taken by a thin glass rod and streaked on a YGP agar plate containing 100 mcg/ml of chloramphenicol. The plate was incubated for two days at 28° C. […] In the following Table I the antifungal activity of the test compound is reported as the EC50 value, which is the percentage drug concentration giving 50% of the score of untreated control animals. The EC50 was calculated by the method of least squares (K. Brounlee: Statistical Theory and Methodology in Science and Engineering, pages 345-349, Wiley Press, New York, 1965). In Table II a more detailed comparison on the in vivo antifungal activities of compound 3a and the isomeric prior art compound 2 are shown together with the data for compound 3b.

Trichophyton quinekeanum = Trichophyton quinekeanum induced skin infection in guinea pigs; assay type: in vivo, male guinea pigs; details: for EC50, Trichophyton Skin Infection: Table I, percentage drug concentration giving 50% of the score of untreated control, topical ointment; for EC50 (%) (95% CL), Trichophyton skin infection: Table II, N = 4, 3 applications day 1, 3 and 5; for Score, Determ. F / Score, Mean / Score, Determ. G / Score, Determ. E: lesion score 0-4
Experimental: In the guinea pig skin infection test, Trichophyton quinekeanum was cultured on a YGP agar slant at 28° C. for 10 days. Spores were collected from the mycelial mat and suspended in Sabouraud broth containing 2% of Tween 80. Groups of 3 male guinea pigs weighing between 400-500 g were used for each dose of test compound. The flanks of the animals were depilated and injured with sandpaper. The injured area was inoculated and rubbed with a glass rod on day 0 with 0.2 ml of the spore suspension containing 10^8 CFU/ml. The test compound was combined with a 1:1 mixture of polyethylene glycol 400 and 4000, and 0.3 ml of the ointment was applied to the infected area on day 1, 3 and 5. Lesions were examined on day 7 and scored as follows: 0, normal; 1, erythema; 2, erythema with whitish area; 3, erythema and numerous whitish areas; 4, erythema with confluent scaling and whitish pateches. A compound showing a mean score of 1.5 or less was considered active.
In the following Table I the antifungal activity of the test compound is reported as the EC50 value, which is the percentage drug concentration giving 50% of the score of untreated control animals. The EC50 was calculated by the method of least squares (K. Brounlee: Statistical Theory and Methodology in Science and Engineering, pages 345-349, Wiley Press, New York, 1965). In Table II a more detailed comparison on the in vivo antifungal activities of compound 3a and the isomeric prior art compound 2 are shown together with the data for compound 3b.
Treatment: 5 applications (day 0 to 4) against candida vaginal infection
and 3 applications (day 1, 3 and 5) against trichophyton skin infection

Streptococcus pneumoniae = experiment: in vitro antibacterial activity (MIC), S. pneumoniae; assay type: cell-based; details: 50% Nutrient Broth + 5% human serum

MIC (Staphylococcus aureus; Strain A): 0.25 µg/mL
MIC (Staphylococcus aureus; Strain B): > 63 µg/mL
MIC (Staphylococcus aureus; Strain C): 0.25 µg/mL
MIC (Streptococcus pyogenes): > 63 µg/mL
MIC (S. faecalis): 0.5 µg/mL
EC50, Candida Vaginal Infection (Candida albicans): > 0.3%
EC50, Trichophyton Skin Infection (Trichophyton quinekeanum): 0.085%
MIC (Streptococcus pneumoniae): > 63 µg/mL
Structure (SMILES): Clc1ccc(C(Cn2ccnc2)SCSCc2c(Cl)cccc2Cl)c(Cl)c1 (centres unmarked) [Compound 3e, 1-[2-(2,6-Dichlorobenzylthiomethylthio)-2-(2,4-dichlorophenyl)ethyl]1-H-imidazole hydrochloride]

MIC (Staphylococcus aureus; Strain A): 0.5 µg/mL
MIC (Staphylococcus aureus; Strain B): > 63 µg/mL
MIC (Staphylococcus aureus; Strain C): 0.5 µg/mL
MIC (Streptococcus pyogenes): 63 µg/mL
MIC (S. faecalis): 2 µg/mL
EC50, Candida Vaginal Infection (Candida albicans): 0.0042%
EC50, Trichophyton Skin Infection (Trichophyton quinekeanum): 0.046%
MIC (Streptococcus pneumoniae): 63 µg/mL
Structure (SMILES): Cc1ccc(CSCSC(Cn2ccnc2)c2ccc(Cl)cc2Cl)cc1.O=C(O)/C=C/C(=O)O (centres unmarked) [Compound 3c, 1-[2-(2,4-Dichlorophenyl)-2-(4-methylbenzylthiomethylthio)ethyl]-1H-imidazole hydrogen fumarate]

EC50, Candida Vaginal Infection (Candida albicans): > 0.3%
EC50 (%) (95% CL), Candida vaginal infection (Candida albicans): > 0.3%
EC50, Trichophyton Skin Infection (Trichophyton quinekeanum): 0.10%
EC50 (%) (95% CL), Trichophyton skin infection (Trichophyton quinekeanum): 0.10%
Structure (SMILES): Clc1ccc(SCCSC(Cn2ccnc2)c2ccc(Cl)cc2Cl)cc1 (centres unmarked) [Compound 2, reference compound]
Score, Determination A (Candida albicans; conc. 0.03%): 2.8
Score, Determination B (Candida albicans; conc. 0.03%): 3.2
Score, Mean (Candida albicans; conc. 0.03%): 3.0
Score, Determination A (Candida albicans; conc. 0.1%): 2.4
Score, Determination B (Candida albicans; conc. 0.1%): 3.0
Score, Mean (Candida albicans; conc. 0.1%): 2.7
Score, Determination A (Candida albicans; conc. 0.3%): 3.4
Score, Determination B (Candida albicans; conc. 0.3%): 1.8
Score, Mean (Candida albicans; conc. 0.3%): 2.6
Score, Determ. F (Trichophyton quinekeanum; conc. 0.03%): 2.3
Score, Mean (Trichophyton quinekeanum; conc. 0.03%): 2.3
Score, Determ. F (Trichophyton quinekeanum; conc. 0.1%): 2.3
Score, Mean (Trichophyton quinekeanum; conc. 0.1%): 2.3
Score, Determ. F (Trichophyton quinekeanum; conc. 0.3%): 0.5
Score, Mean (Trichophyton quinekeanum; conc. 0.3%): 0.5

MIC (Staphylococcus aureus; Strain A): 0.5 µg/mL
MIC (Staphylococcus aureus; Strain B): > 63 µg/mL
MIC (Staphylococcus aureus; Strain C): > 63 µg/mL
MIC (Streptococcus pyogenes): 63 µg/mL
MIC (S. faecalis): > 63 µg/mL
EC50, Candida Vaginal Infection (Candida albicans): 0.0035%
EC50 (%) (95% CL), Candida vaginal infection (Candida albicans): 0.0035%
EC50, Trichophyton Skin Infection (Trichophyton quinekeanum): 0.039%
EC50 (%) (95% CL), Trichophyton skin infection (Trichophyton quinekeanum): 0.039%
MIC (Streptococcus pneumoniae): 63 µg/mL
Structure (SMILES): Clc1ccc(CSCSC(Cn2ccnc2)c2ccc(Cl)cc2Cl)cc1 (centres unmarked) [Compound 3a, 1-[2-(4-Chlorobenzylthiomethylthio)-2-(2,4-dichlorophenyl)ethyl]1-H-imidazole hydrogen fumarate]
Score, Determination A (Candida albicans; conc. 0.0003%): 2.8
Score, Determination B (Candida albicans; conc. 0.0003%): 2.2
Score, Determination C (Candida albicans; conc. 0.0003%): 3.4
Score, Determination D (Candida albicans; conc. 0.0003%): 2.5
Score, Mean (Candida albicans; conc. 0.0003%): 2.6
Score, Determination A (Candida albicans; conc. 0.001%): 3.0
Score, Determination B (Candida albicans; conc. 0.001%): 2.2
Score, Determination C (Candida albicans; conc. 0.001%): 2.8
Score, Determination D (Candida albicans; conc. 0.001%): 2.0
Score, Mean (Candida albicans; conc. 0.001%): 2.5
Score, Determination A (Candida albicans; conc. 0.003%): 1.4
Score, Determination B (Candida albicans; conc. 0.003%): 2.2
Score, Determination C (Candida albicans; conc. 0.003%): 3.0
Score, Determination D (Candida albicans; conc. 0.003%): 1.3
Score, Mean (Candida albicans; conc. 0.003%): 2.0
Score, Determination A (Candida albicans; conc. 0.01%): 1.5
Score, Determination B (Candida albicans; conc. 0.01%): 0.4
Score, Determination C (Candida albicans; conc. 0.01%): 1.3
Score, Determination D (Candida albicans; conc. 0.01%): 1.3
Score, Mean (Candida albicans; conc. 0.01%): 1.1
Score, Determination A (Candida albicans; conc. 0.03%): 0.6
Score, Determination B (Candida albicans; conc. 0.03%): 0.8
Score, Determination C (Candida albicans; conc. 0.03%): 0
Score, Determination D (Candida albicans; conc. 0.03%): 0.4
Score, Mean (Candida albicans; conc. 0.03%): 0.45
times more efficacious than prior art compound 2, Candida induced vaginal infection in mice (Candida albicans; relative to prior art compound 2 (for 3a: hydrogen fumarate vs hydrogen fumarate)): greater than 85 times
Score, Determ. G (Trichophyton quinekeanum; conc. 0.01%): 2.0
Score, Mean (Trichophyton quinekeanum; conc. 0.01%): 2.0
Score, Determ. E (Trichophyton quinekeanum; conc. 0.03%): 1.8
Score, Determ. F (Trichophyton quinekeanum; conc. 0.03%): 2.5
Score, Determ. G (Trichophyton quinekeanum; conc. 0.03%): 1.5
Score, Mean (Trichophyton quinekeanum; conc. 0.03%): 1.9
Score, Determ. E (Trichophyton quinekeanum; conc. 0.1%): 1.5
Score, Determ. F (Trichophyton quinekeanum; conc. 0.1%): 1.0
Score, Determ. G (Trichophyton quinekeanum; conc. 0.1%): 0.3
Score, Mean (Trichophyton quinekeanum; conc. 0.1%): 0.92
Score, Determ. E (Trichophyton quinekeanum; conc. 0.3%): 1.0
Score, Determ. F (Trichophyton quinekeanum; conc. 0.3%): 0
Score, Determ. G (Trichophyton quinekeanum; conc. 0.3%): 0
Score, Mean (Trichophyton quinekeanum; conc. 0.3%): 0.33
times more efficacious than prior art compound 2, Trichophyton induced skin infection in guinea pigs (Trichophyton quinekeanum; hydrogen fumarate of 3a vs prior art compound 2): about 2.5 times

EC50, Candida Vaginal Infection (Candida albicans): 0.0022%
EC50, Trichophyton Skin Infection (Trichophyton quinekeanum): 0.038%
Structure (SMILES): Cl.Clc1ccc(C(Cn2ccnc2)SCSCc2ccc(Cl)s2)c(Cl)c1 (centres unmarked) [Compound 3i, 1-[2-(5-Chloro-2-thienylmethylthiomethylthio)-2-(2,4-dichlorophenyl)ethyl]-1H-imidazole hydrochloride]

Continued, molecule first:

Structure (SMILES): Clc1ccc(CSCSC(Cn2ccnc2)c2ccc(Cl)cc2)cc1.O=C(O)/C=C/C(=O)O (centres unmarked) [Compound 3f, 1-[2-(4-Chlorobenzylthiomethylthio)-2-(4-chlorophenyl)ethyl]-1H-imidazole hydrogen fumarate]
MIC (Staphylococcus aureus; Strain A): 1 µg/mL
MIC (Staphylococcus aureus; Strain B): > 63 µg/mL
MIC (Staphylococcus aureus; Strain C): 1 µg/mL
MIC (Streptococcus pyogenes): 63 µg/mL
MIC (S. faecalis): 4 µg/mL
MIC (Streptococcus pneumoniae): 63 µg/mL

Structure (SMILES): Clc1ccc(C(Cn2ccnc2)SCSCc2ccc(Cl)cc2Cl)cc1.O=C(O)/C=C/C(=O)O (centres unmarked) [Compound 3g, 1-[2-(4-Chlorophenyl)-2-(2,4-dichlorobenzylthiomethylthio)ethyl]-1H-imidazole hydrogen fumarate]
MIC (Staphylococcus aureus; Strain A): 1 µg/mL
MIC (Staphylococcus aureus; Strain B): 8 µg/mL
MIC (Staphylococcus aureus; Strain C): 2 µg/mL
MIC (Streptococcus pyogenes): 63 µg/mL
MIC (S. faecalis): 1 µg/mL
MIC (Streptococcus pneumoniae): 63 µg/mL

Structure (SMILES): Clc1ccc(C(Cn2ccnc2)SCSCc2ccsc2Cl)c(Cl)c1.O=C(O)C(=O)O (centres unmarked) [Compound 3h, 1-[2-(2-Chloro-3-thienylmethylthiomethylthio)2-(2,4-dichlorophenyl)ethyl]-1H-imidazole hydrogen oxalate]
MIC (Staphylococcus aureus; Strain A): 0.5 µg/mL
MIC (Staphylococcus aureus; Strain B): 16 µg/mL
MIC (Staphylococcus aureus; Strain C): 0.5 µg/mL
MIC (Streptococcus pyogenes): 32 µg/mL
MIC (S. faecalis): 2 µg/mL
EC50, Candida Vaginal Infection (Candida albicans): 0.050%
EC50, Trichophyton Skin Infection (Trichophyton quinekeanum): 0.047%
MIC (Streptococcus pneumoniae): 63 µg/mL

Structure (SMILES): Clc1ccc(CSCSC(Cn2ccnc2)c2ccc(Cl)cc2Cl)c(Cl)c1.O=C(O)/C=C/C(=O)O (centres unmarked) [Compound 3d, 1-[2-(2,4-Dichlorobenzylthiomethylthio)-2-(2,4-dichlorophenyl)ethyl]-1H-imidazole hydrogen fumarate]
MIC (Staphylococcus aureus; Strain A): 0.25 µg/mL
MIC (Staphylococcus aureus; Strain B): > 63 µg/mL
MIC (Staphylococcus aureus; Strain C): 0.25 µg/mL
MIC (Streptococcus pyogenes): 63 µg/mL
MIC (S. faecalis): > 63 µg/mL
EC50, Candida Vaginal Infection (Candida albicans): 0.060%
EC50, Trichophyton Skin Infection (Trichophyton quinekeanum): 0.078%
MIC (Streptococcus pneumoniae): 63 µg/mL
